Assay results from patent US20090093482A1, “THERAPEUTIC COMPOSITIONS AND METHODS” (Gilead Sciences, Inc., priority 2007, published 2009).
Several values for one entry are separate records, joined by “and”; a condition that tells them apart may be missing. Equal values may be shown once.

Key:
[1] = Pharmacokinetic interaction between lopinavir/r and the Compound, steady-state PK in healthy volunteers; type: in vivo, human; conditions: for Exposures when coadministered with the Compound: LPV/r 400/100 mg BID + the Compound 125 mg QD; for AUCtau % GMR (90% CI) / Cmax % GMR (90% CI) / Ctau % GMR (90% CI): 14-day periods
[2] = Compartmental modeling in WinNonlin of Compound doses using the observed lopinavir interaction data; set-up: species or system human; conditions: modeled
Excerpt: Consideration was given to achieving equivalent Compound exposures in patients receiving and not receiving lopinavir using pharmacokinetic (bio-) equivalence comparisons (Pharsight Corporation, Mountain View, Calif., USA). Consideration was also given to minimizing the number of individuals with extreme outliers in (low or high) exposures.

[3] = LPV/r 400/100 mg BID + the Compound 125 mg QD vs LPV/r 400/100 mg BID alone, n = 13
[4] = the Compound 125 mg QD + LPV/r 400/100 mg BID vs the Compound/r 125/100 mg QD alone, n = 14

SMILES | Exposures when coadministered with the Compound [1] | AUCtau % GMR (90% CI) [1, 3] | Cmax % GMR (90% CI) [1, 3] | Ctau % GMR (90% CI) [1, 3] | Trough concentrations when coadministered with the Compound ([1]; relative to recommended target troughs) | Reduction in the dose of the Compound with lopinavir while maintaining an equivalent exposure [2] | Dose of the Compound with lopinavir/r giving systemic exposure (AUC) similar to a 150 mg dose without lopinavir ([2]; reference is the 150 mg ritonavir-boosted dose without lopinavir) | Dose of the Compound with lopinavir/r giving systemic exposure (AUC) similar to a 300 mg dose without lopinavir ([2]; reference is the 300 mg ritonavir-boosted dose without lopinavir) | AUCtau % GMR (90% CI) [1, 4] | Cmax % GMR (90% CI) [1, 4] | Ctau % GMR (90% CI) [1, 4]
Cc1cccc(C)c1OCC(=O)N[C@@H](Cc1ccccc1)[C@@H](O)C[C@H](Cc1ccccc1)NC(=O)[C@H](C(C)C)N1CCCNC1=O [LPV, (2S)-N-[(2S,4S,5S)-5-{[2-(2,6-dimethyl-phenoxy)acetyl]amino}-4-hydroxy-1,6-diphenyl-hexan-2-yl]-3-methyl-2-(2-oxo-1,3-diazinan-1-yl)butanamide] | unaltered | 96.6% | 99.2% | 92.3% | maintained above recommended target troughs |  |  |  |  |  | 
CC(C)c1nc(CN(C)C(=O)NC(C(=O)NC(Cc2ccccc2)CC(O)C(Cc2ccccc2)NC(=O)OCc2cncs2)C(C)C)cs1 (stereo not drawn) [RTV, 1,3-thiazol-5-ylmethyl[3-hydroxy-5-[3-methyl-2-[methyl-[(2-propan-2-yl-1,3-thiazol-4-yl)methyl]carbamoyl]amino-butanoyl]amino-1,6-diphenyl-hexan-2-yl]aminoformate] | unaltered | 103% | 114% | 88.3% |  |  |  |  |  |  | 
COc1cc2c(cc1Cc1cccc(Cl)c1F)c(=O)c(C(=O)O)cn2[C@H](CO)C(C)C [the Compound, 6-(3-chloro-2-fluorobenzyl)-1-[(2S)-1-hydroxy-3-methylbutan-2-yl]-7-methoxy-4-oxo-1,4-dihydroquinoline-3-carboxylic acid] |  |  |  |  |  | 40-60% | 85 mg and 85 ± 10 mg | 150 mg | 175 (150, 204) % | 152 (129, 179) % | 238 (181, 313) %
